Experimental data taken from patent EP0267319A1, “Anti-spasmodic agents having a ring in the main chain” (United Pharmaceuticals, Inc., priority 1986, dated 1988).
Where a name gives a salt, the structure may show the parent alone.

Tested on: rabbit urinary bladder strip
Test: relaxant effect on bethanechol-contracted rabbit urinary bladder strips (organ bath)
Format: cell-based
Conditions: for Decrease in force of contraction of rabbit bladder strip / Increase in length of rabbit bladder strip: strips pre-contracted with bethanechol 150 µM; for Increase in length of rabbit bladder strip: cumulative dosing, read 5 minutes after addition; for % background relaxation: term not explained
Protocol: The pharmological actions of one anti-spasmodic compound was studied in a rabbit urinary bladder strip preparation. In general, longitudinal strips were prepared from the base of freshly isolated rabbit bladders and were then suspended under near-physiological conditions in tissue baths. The strips were attached to force transducers and both contractile and relaxant activity was measured. To measure the relaxant effects on the anti-spasmodic compounds on previously-contracted bladder strips, the strips were initially exposed to the muscarinic receptor agonist bethanechol and allowed to reach a steady level of contractile activity for 20 minutes. At this point cumulative dose-responses to the compound was recorded. The rabbit abdomens were opened through a vertical midline incision. The bladder and urethra were dissected free of all surrounding tissues, removed and placed in aerated (95% O₂:5% CO₂) Kreb's-bicarbonate buffer (pH:7.4) of the following composition ([…]):KCl 4.6, CaCl₂·2H₂O 2.5, KH₂PO₄ 1.2, MgSO₄·7H₂O 1.2, NaCl 118.2, NaHCO₃ 24.8, and glucose 10.0. Longitudinal muscle strips were prepared from the bladder base (approximately 6 mm x 4 mm) and suspended in an organ bath containing Kreb's buffer (37°C) which was continuously aerated with O₂:CO₂ (95%:5%). Tissues were allowed to equilibrate to a tension of 2 gm for sixty minutes during which time buffer was replaced at 20 minute intervals. The contractile and relaxant responses of the muscle strips were measured isometrically with a Statham UC3 force-displacement transducer and recorded on an Electronics for Medicine DR8 oscillographic recorder. Bethanechol was employed as the representative cholinergic agonist and, following equilibration, was added to the baths for a final concentration of 150 µM. The tissues were allowed 20 minutes to achieve a maintained level of contraction in response to bethanechol and, at this point, cumulative dose-response measurements for one anti-spasmodic compound were started at concentrations ranging from 10⁻⁸ M to 10⁻⁴M. Solutions were added in volumes up to 100 µl and were prepared fresh each day by dissolving them in distilled:deionzed water. Responses were measured 5 minutes following any particular cumulative addition and were expressed as a percentage of maximal relaxation (e.g. maximal relaxation is the baseline or pre-bethanechol level of muscle tone).
Dose responses, measured from the standard bethanechol-contracted rabbit bladder strips, at various concentrations of 4-t-butyl-benzoyl-thio-S-(2-diethylaminoethyl)-ester·HCl [drawing 12] are presented in Table I: […]

Q: Which “Decrease in force of contraction of rabbit bladder strip” value (“Decrease in force” below) (10^-4 moles/liter) does the source give for `CCN(CC)CCSC(=O)c1ccc(C(C)(C)C)cc1` [4-t-butyl-benzoyl-thio-S-(2-diethylaminoethyl)-ester·HCl] here?
A: 0.67 gm

Q: What about the “Increase in length of rabbit bladder strip” value (shortened to “Increase in length”) (10^-4 moles/liter) of the same compound?
A: 3.2 cm

Q: And the “% background relaxation” value (10^-4 moles/liter)?
A: 31.8%

Q: And the “Decrease in force” value (10^-5 moles/liter)?
A: 0.27 gm

Q: What about the “Increase in length” value (10^-5 moles/liter) of the same compound?
A: 1.3 cm

Q: And the “% background relaxation” value (10^-5 moles/liter)?
A: 9.5%

Q: And the “Decrease in force” value (10^-6 moles/liter)?
A: 0.08 gm

Q: And the “Increase in length” value (10^-6 moles/liter)?
A: 0.4 cm

Q: What about the “% background relaxation” value (10^-6 moles/liter) of the same compound?
A: 0.0%

Q: And the “Decrease in force” value (10^-7 moles/liter)?
A: 0.04 gm

Q: And the “Increase in length” value (10^-7 moles/liter)?
A: 0.2 cm

Q: And the “% background relaxation” value (10^-7 moles/liter)?
A: 0.0%

Q: And the “Decrease in force” value (10^-8 moles/liter)?
A: 0.02 gm

Q: What about the “Increase in length” value (10^-8 moles/liter) of the same compound?
A: 0.1 cm

Q: And the “% background relaxation” value (10^-8 moles/liter)?
A: 0.0%

Q: And the inhibition at 100 µM (Oryctolagus cuniculus, 5 min, 10^-4 moles/liter, maximal relaxation = pre-bethanechol level of muscle tone, read-out: % of maximum relaxation)?
A: 40.5%

Q: What about the inhibition at 10 µM (Oryctolagus cuniculus, 5 min, 10^-5 moles/liter, maximal relaxation = pre-bethanechol level of muscle tone, read-out: % of maximum relaxation) of the same compound?
A: 16.5%

Q: And the inhibition at 1 µM (Oryctolagus cuniculus, 5 min, 10^-6 moles/liter, maximal relaxation = pre-bethanechol level of muscle tone, read-out: % of maximum relaxation)?
A: 5.2%

Q: And the inhibition at 0.1 µM (Oryctolagus cuniculus, 5 min, 10^-7 moles/liter, maximal relaxation = pre-bethanechol level of muscle tone, read-out: % of maximum relaxation)?
A: 2.6%

Q: What about the inhibition at 0.01 µM (Oryctolagus cuniculus, 5 min, 10^-8 moles/liter, maximal relaxation = pre-bethanechol level of muscle tone, read-out: % of maximum relaxation) of the same compound?
A: 1.3%
